Data published in patent US12187742B2 (XRAD Therapeutics, Inc., priority 2018, dated 2025).

How the values were obtained:
ATM = ATM (Homo sapiens (Human), UniProt Q13315); test: ATM in Cell Western Assay (pKAP1 in etoposide-treated MCF-7 cells); format: cell-based; conditions: pKAP1 in etoposide-treated MCF-7 cells
In short: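 After paraformaldehyde fixation and Triton X-100 permeabilization, immunostained plates were read by infrared scanning (ODYSSEY CLx). Compound was given as 10 doses, 3-fold dilutions from a 1 μM final top concentration.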

DNA-PK = DNA-PK (Homo sapiens (Human), UniProt P78527); test: DNA-PK Enzyme-Linked Immunosorbent Assay (phosphorylation of GST-p53 (1-101) peptide); format: biochemical; conditions: ELISA, 20 μM ATP
In short: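 Inhibition measured by 450 nm absorbance after HRP/TMB detection of phospho-Ser15 on immobilized GST-p53 (1-101). The kinase reaction used 0.1 μg/mL DNA-PK and 20 μM ATP, 1 h at 25 °C. Ten 3-fold compound dilutions, top final concentration 100 nM.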

Sequence of ATM (Q13315 whole entry): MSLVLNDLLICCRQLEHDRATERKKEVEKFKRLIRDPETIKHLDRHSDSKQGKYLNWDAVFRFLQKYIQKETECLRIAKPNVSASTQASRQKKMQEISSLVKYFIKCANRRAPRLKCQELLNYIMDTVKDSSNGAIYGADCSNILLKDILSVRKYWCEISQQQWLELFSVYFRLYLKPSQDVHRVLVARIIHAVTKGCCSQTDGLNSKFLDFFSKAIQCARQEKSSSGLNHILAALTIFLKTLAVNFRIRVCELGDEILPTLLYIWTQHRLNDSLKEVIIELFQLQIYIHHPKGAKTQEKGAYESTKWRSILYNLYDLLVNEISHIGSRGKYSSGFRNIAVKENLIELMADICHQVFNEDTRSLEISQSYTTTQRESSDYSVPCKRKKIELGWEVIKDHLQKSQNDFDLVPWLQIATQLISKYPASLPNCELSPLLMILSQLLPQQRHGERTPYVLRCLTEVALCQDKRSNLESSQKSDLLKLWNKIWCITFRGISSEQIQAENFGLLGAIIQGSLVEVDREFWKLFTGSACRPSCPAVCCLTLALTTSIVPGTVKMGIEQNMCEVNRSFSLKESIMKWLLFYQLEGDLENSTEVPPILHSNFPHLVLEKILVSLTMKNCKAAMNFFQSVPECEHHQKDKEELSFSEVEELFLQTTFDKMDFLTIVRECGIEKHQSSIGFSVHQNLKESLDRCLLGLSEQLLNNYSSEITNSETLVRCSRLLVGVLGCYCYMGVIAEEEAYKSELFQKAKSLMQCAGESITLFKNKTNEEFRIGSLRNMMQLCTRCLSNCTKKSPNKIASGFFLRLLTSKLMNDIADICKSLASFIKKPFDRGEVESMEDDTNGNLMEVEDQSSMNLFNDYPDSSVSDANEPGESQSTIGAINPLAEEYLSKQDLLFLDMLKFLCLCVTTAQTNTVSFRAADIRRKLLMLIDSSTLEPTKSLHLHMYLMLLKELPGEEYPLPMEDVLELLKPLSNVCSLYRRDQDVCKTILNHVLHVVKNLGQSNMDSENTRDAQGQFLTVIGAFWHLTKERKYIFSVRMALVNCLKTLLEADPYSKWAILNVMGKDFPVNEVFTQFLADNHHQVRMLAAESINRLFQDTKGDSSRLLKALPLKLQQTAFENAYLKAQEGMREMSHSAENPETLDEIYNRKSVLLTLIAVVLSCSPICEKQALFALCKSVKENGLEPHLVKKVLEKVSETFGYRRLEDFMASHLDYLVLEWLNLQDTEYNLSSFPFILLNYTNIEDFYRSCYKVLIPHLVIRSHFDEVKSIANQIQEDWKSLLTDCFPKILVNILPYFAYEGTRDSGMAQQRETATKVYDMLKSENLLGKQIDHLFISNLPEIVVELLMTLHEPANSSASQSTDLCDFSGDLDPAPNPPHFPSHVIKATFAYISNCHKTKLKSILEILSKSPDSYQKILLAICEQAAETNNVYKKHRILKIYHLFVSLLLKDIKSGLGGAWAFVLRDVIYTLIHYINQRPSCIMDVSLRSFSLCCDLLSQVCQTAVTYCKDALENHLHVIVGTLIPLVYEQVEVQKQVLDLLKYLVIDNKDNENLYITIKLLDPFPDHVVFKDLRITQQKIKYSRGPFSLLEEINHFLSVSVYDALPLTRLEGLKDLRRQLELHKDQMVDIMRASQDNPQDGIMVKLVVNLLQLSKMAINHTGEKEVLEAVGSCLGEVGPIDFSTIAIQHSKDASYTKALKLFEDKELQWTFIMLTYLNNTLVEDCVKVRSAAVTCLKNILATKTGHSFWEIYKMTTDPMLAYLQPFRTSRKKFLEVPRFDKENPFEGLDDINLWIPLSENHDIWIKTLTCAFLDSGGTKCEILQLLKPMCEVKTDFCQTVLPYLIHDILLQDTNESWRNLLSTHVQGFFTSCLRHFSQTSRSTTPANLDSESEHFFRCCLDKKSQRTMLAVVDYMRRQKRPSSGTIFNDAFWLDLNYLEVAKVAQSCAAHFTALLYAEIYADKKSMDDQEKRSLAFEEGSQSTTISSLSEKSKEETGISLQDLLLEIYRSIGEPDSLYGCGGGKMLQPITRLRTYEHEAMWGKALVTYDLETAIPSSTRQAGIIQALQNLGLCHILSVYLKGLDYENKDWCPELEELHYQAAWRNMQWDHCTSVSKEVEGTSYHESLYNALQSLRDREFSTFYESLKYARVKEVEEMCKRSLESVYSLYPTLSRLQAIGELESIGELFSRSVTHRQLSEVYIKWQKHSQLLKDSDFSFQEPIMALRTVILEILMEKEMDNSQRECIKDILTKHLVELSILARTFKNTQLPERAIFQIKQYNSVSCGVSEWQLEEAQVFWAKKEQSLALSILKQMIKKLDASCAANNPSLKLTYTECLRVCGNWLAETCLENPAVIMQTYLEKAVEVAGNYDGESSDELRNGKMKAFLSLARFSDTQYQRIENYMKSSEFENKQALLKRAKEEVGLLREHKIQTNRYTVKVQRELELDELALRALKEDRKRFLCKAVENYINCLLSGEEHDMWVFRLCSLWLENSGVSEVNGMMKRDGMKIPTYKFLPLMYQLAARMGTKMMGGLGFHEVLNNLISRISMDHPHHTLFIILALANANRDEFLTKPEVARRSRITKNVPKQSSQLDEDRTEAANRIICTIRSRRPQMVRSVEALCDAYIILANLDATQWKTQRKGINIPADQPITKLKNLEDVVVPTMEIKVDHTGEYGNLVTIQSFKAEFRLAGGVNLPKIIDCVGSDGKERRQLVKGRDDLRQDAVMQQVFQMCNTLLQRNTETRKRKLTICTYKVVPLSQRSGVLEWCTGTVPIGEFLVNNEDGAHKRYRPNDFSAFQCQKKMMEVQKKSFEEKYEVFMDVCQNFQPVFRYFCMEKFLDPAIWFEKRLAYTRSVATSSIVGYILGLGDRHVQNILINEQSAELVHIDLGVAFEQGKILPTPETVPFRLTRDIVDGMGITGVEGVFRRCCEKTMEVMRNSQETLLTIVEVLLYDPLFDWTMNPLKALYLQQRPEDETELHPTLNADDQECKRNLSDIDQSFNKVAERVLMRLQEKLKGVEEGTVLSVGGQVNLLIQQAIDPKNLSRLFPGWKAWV

IC50 (ATM)	IC50 (DNA-PK)	SMILES
1 to 100 nM	1 to 100 nM	COc1cccc([C@H]2C[C@]3(C2)C(=O)N(C)c2cnc4cc(F)c(-c5cnc(OCCNC(C)C)c(NS(C)(=O)=O)c5)cc4c23)n1 [Example 428, cis-N-(5-(7′-Fluoro-3-(6-methoxypyridin-2-yl)-3′-methyl-2′-oxo-2′,3′-dihydrospiro[cyclobutane-1,1′-pyrrolo[2,3-c]quinolin]-8′-yl)-2-(2-(isopropylamino)ethoxy)pyridin-3-yl)methanesulfonamide]
1 to 100 nM	1 to 100 nM	COc1cccc([C@H]2C[C@@]3(C2)C(=O)N(C)c2cnc4cc(F)c(-c5cnc(OCCNC(C)C)c(NS(C)(=O)=O)c5)cc4c23)n1 [Example 429, trans-N-(5-(7′-Fluor-3-(6-methoxypyridin-2-yl)-3′-methyl-2′-oxo-2′,3′-dihydrospiro[cyclobutane-1,1′-pyrrolo[2,3-c]quinolin]-8′-yl)-2-(2-(isopropylamino)ethoxy)pyridin-3-yl)methanesulfonamide]
1 to 100 nM	1 to 100 nM	COc1ccc([C@H]2C[C@]3(C2)C(=O)N(C)c2cnc4cc(F)c(-c5cnc(OCCNC(C)C)c(NS(C)(=O)=O)c5)cc4c23)cn1 [Example 430]
> 100 nM	> 100 nM	COc1ccc([C@H]2C[C@@]3(C2)C(=O)N(C)c2cnc4cc(F)c(-c5cnc(OCCNC(C)C)c(NS(C)(=O)=O)c5)cc4c23)cn1 [Example 431, trans-N-(5-(7′-Fluoro-3-(6-methoxypyridin-3-yl)-3′-methyl-2′-oxo-2′,3′-dihydrospiro[cyclobutane-1,1′-pyrrolo[2,3-c]quinolin]-8′-yl)-2-(2-(isopropylamino)ethoxy)pyridin-3-yl)methanesulfonamide]
1 to 100 nM	1 to 100 nM	COc1cc([C@H]2C[C@]3(C2)C(=O)N(C)c2cnc4cc(F)c(-c5cnc(OCCNC(C)C)c(NS(C)(=O)=O)c5)cc4c23)ccn1 [Example 432, cis-N-(5-(7′-Fluoro-3-(2-methoxypyridin-4-yl)-3′-methyl-2′-oxo-2′,3′-dihydrospiro[cyclobutane-1,1′-pyrrolo[2,3-c]quinolin]-8′-yl)-2-(2-(isopropylamino)ethoxy)pyridin-3-yl)methanesulfonamide]
> 100 nM	1 to 100 nM	COc1cc([C@H]2C[C@@]3(C2)C(=O)N(C)c2cnc4cc(F)c(-c5cnc(OCCNC(C)C)c(NS(C)(=O)=O)c5)cc4c23)ccn1 [Example 433, trans-N-(5-(7′-Fluoro-3-(2-methoxypyridin-4-yl)-3′-methyl-2′-oxo-2′,3′-dihydrospiro[cyclobutane-1,1′-pyrrolo[2,3-c]quinolin]-8′-yl)-2-(2-(isopropylamino)ethoxy)pyridin-3-yl)methanesulfonamide]
1 to 100 nM	1 to 100 nM	CC(C)NCCOc1ncc(-c2cc3c(cc2F)ncc2c3[C@]3(C[C@H](c4ccncc4)C3)C(=O)N2C)cc1NS(C)(=O)=O [Example 438]
> 100 nM	1 to 100 nM	CC(C)NCCOc1ncc(-c2cc3c(cc2F)ncc2c3[C@]3(C[C@@H](c4ccncc4)C3)C(=O)N2C)cc1NS(C)(=O)=O [Example 439, trans-N-{5-(7′-Fluoro-3′-methyl-2′-oxo-3-(pyridin-4-yl)-2′,3′-dihydrospiro[cyclobutane-1,1′-pyrrolo[2,3-c]quinolin]-8′-yl)-2-(2-(isopropylamino)ethoxy)pyridin-3-yl)methanesulfonamide]

Second part, the compound before the results:

SMILES	IC50 (ATM)	IC50 (DNA-PK)
CC(C)NCCOc1ncc(-c2cc3c(cc2F)ncc2c3[C@]3(C[C@@H](c4cccc(F)c4)C3)C(=O)N2C)cc1NS(C)(=O)=O [Example 425, trans-N-(5-(7′-Fluoro-3-(3-fluorophenyl)-3′-methyl-2′-oxo-2′,3′-dihydrospiro[cyclobutane-1,1′-pyrrolo[2,3-c]quinolin]-8′-yl)-2-(2-(isopropylamino)ethoxy)pyridin-3-yl)methanesulfonamide]	> 100 nM	1 to 100 nM
CC(C)NCCOc1ncc(-c2cc3c(cc2F)ncc2c3[C@]3(C[C@H](c4ccccc4F)C3)C(=O)N2C)cc1NS(C)(=O)=O [Example 426, cis-N-(5-(7′-Fluoro-3-(2-fluorophenyl)-3′-methyl-2′-oxo-2′,3′-dihydrospiro[cyclobutane-1,1′-pyrrolo[2,3-c]quinolin]-8′-yl)-2-(2-(isopropylamino)ethoxy)pyridin-3-yl)methanesulfonamide]	1 to 100 nM	1 to 100 nM
CC(C)NCCOc1ncc(-c2cc3c(cc2F)ncc2c3[C@]3(C[C@@H](c4ccccc4F)C3)C(=O)N2C)cc1NS(C)(=O)=O [Example 427, trans-N-(5-(7′-Fluoro-3-(2-fluorophenyl)-3′-methyl-2′-oxo-2′,3′-dihydrospiro[cyclobutane-1,1′-pyrrolo[2,3-c]quinolin]-8′-yl)-2-(2-(isopropylamino)ethoxy)pyridin-3-yl)methanesulfonamide]	> 100 nM	1 to 100 nM
CC(C)NCCOc1ncc(-c2cc3c(cc2F)ncc2c3[C@]3(C[C@H](c4ccccn4)C3)C(=O)N2C)cc1NS(C)(=O)=O [Example 434, cis-N-(5-(7′-Fluoro-3′-methyl-2′-oxo-3-(pyridin-2-yl)-2′,3′-dihydrospiro [cyclobutane-1,1′-pyrrolo[2,3-c]quinolin]-8′-yl)-2-(2-(isopropylamino)ethoxy)pyridin-3-yl)methanesulfonamide]	1 to 100 nM	1 to 100 nM
CC(C)NCCOc1ncc(-c2cc3c(cc2F)ncc2c3[C@]3(C[C@@H](c4ccccn4)C3)C(=O)N2C)cc1NS(C)(=O)=O [Example 435, trans-N-(5-(7′-Fluoro-3′-methyl-2′-oxo-3-(pyridin-2-yl)-2′,3′-dihydrospiro[cyclobutane-1,1′-pyrrolo[2,3-c]quinolin]-8′-yl)-2-(2-(isopropylamino)ethoxy)pyridin-3-yl)methanesulfonamide]	> 100 nM	1 to 100 nM
CC(C)NCCOc1ncc(-c2cc3c(cc2F)ncc2c3[C@]3(C[C@H](c4cccnc4)C3)C(=O)N2C)cc1NS(C)(=O)=O [Example 436, cis-N-(5-(7′-Fluoro-3′-methyl-2′-oxo-3-(pyridin-3-yl)-2′,3′-dihydrospiro[cyclobutane-1,1′-pyrrolo[2,3-c]quinolin]-8′-yl)-2-(2-(isopropylamino)ethoxy)pyridin-3-yl)methanesulfonamide]	1 to 100 nM	1 to 100 nM
CC(C)NCCOc1ncc(-c2cc3c(cc2F)ncc2c3[C@]3(C[C@@H](c4cccnc4)C3)C(=O)N2C)cc1NS(C)(=O)=O [Example 437, trans-N-{5-(7′-Fluoro-3′-methyl-2′-oxo-3-(pyridin-3-yl)-2′,3′-dihydrospiro[cyclobutane-1,1′-pyrrolo[2,3-c]quinolin]-8′-yl)-2-(2-(isopropylamino)ethoxy)pyridin-3-yl)methanesulfonamide]	> 100 nM	1 to 100 nM
CC(C)NCCOc1ncc(-c2cc3c(cc2F)ncc2c3[C@]3(C[C@H](c4cccc(=O)[nH]4)C3)C(=O)N2C)cc1NS(C)(=O)=O [Example 440, cis-N-(5-(7′-Fluoro-3′-methyl-2′-oxo-3-(6-oxo-1,6-dihydropyridin-2-yl)-2′,3′-dihydrospiro[cyclobutane-1,1′-pyrrolo[2,3-c]quinolin]-8′-yl)-2-(2-(isopropylamino)ethoxy)pyridin-3-yl)methanesulfonamide]	> 100 nM	1 to 100 nM
